BindingDB's records for doi:10.1021/jm101401a (Sanford-Burnham Medical Research Institute, 2011)

Biological target: T1, Mannose-6-phosphate isomerase (Homo sapiens, UniProt P34949)
T1 sequence (P34949 whole entry): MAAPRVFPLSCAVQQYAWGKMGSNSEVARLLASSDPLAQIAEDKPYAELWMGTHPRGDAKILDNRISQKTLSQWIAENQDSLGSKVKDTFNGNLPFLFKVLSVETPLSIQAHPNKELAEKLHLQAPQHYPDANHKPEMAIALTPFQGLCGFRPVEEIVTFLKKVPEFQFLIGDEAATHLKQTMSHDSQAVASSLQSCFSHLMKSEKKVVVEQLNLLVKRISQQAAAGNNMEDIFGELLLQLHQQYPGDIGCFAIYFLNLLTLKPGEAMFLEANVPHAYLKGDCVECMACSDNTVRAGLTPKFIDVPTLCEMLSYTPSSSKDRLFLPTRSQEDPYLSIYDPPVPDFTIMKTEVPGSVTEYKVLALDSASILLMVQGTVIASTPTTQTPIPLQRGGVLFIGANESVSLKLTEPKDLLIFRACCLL
Test: Inhibition of human purified phosphomannose isomerase

SMILES: C=CCn1c(=O)c(=Cc2cc(OC)c(OC)c(OC)c2)s/c1=C(/C#N)c1nc2ccccc2n1C [2-(1-methyl-2-benzimidazolyl)-2-[4-oxo-3-prop-2-enyl-5-[(3,4,5-trimethoxyphenyl)methylidene]-2-thiazolidinylidene]acetonitrile]
- IC50: > 10 µM

SMILES: Oc1c(-c2ccccc2)sc2ccccc12 [2-phenyl-1-benzothiophen-3-one]
- IC50: > 10 µM
